Assay results reported in US9193728B2, “Fused tetracyclic pyrido [4,3-B] indole and pyrido [3,4-B] indole derivatives and methods of use” (Medivation Technologies, Inc., priority 2010, dated 2015).

Experiments:
[1] = molecular target: T1, human recombinant serotonin (5-Hydroxytryptamine) 5-HT7 receptor (Homo sapiens, UniProt P34969); experiment: Serotonin 5-HT7 radioligand binding ([3H]LSD); details: for inhibition at 1 µM: compound at 1 μM, read-out: Serotonin (1 μM) 5-HT7, percentage inhibition of ligand binding
T1 construct: expressed in transfected cells; host or cells: CHO
T1 sequence (P34969 whole entry): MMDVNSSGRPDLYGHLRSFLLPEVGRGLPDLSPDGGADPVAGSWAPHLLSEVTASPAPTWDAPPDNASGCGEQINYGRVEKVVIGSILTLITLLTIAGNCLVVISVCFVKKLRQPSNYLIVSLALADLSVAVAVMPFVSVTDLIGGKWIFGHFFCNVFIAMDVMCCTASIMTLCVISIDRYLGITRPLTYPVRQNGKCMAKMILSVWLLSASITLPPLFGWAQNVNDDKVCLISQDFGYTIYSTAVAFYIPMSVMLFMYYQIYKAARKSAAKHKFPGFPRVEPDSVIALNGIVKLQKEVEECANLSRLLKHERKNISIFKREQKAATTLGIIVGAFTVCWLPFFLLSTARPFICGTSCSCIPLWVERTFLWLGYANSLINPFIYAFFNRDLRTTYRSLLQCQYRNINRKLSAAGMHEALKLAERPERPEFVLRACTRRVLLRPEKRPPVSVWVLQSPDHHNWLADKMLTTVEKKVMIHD
Protocol: To evaluate in radioligand binding assays the activity of compounds of the invention, human recombinant serotonin (5-Hydroxytryptamine) 5-HT7 receptor expressed in Chinese hamster ovary (CHO) cells (Roth, B. et al, J. Pharmacol. Exp. Ther. 268:1403, 1994; Shen, Y. et al, J. Biol. Chem. 268:18200, 1993) in a modified Tris-HCl buffer (50 mM Tris-HCl, pH 7.4, 10 mM MgCl2, 0.5 mM EDTA) was used. Compounds of invention were incubated with 5.5 nM [^3H]Lysergic acid diethylamide (LSD) for 120 min. at 25° C. Non-specific binding was estimated in the presence of 10 μM Serotonin (5-HT). Receptor proteins were filtered and washed, the filters were then counted to determine [^3H]LSD specifically bound. Compounds were screened at 1 μM or lower, using 1% DMSO as vehicle. Biochemical assay results are presented as the percent inhibition of specific binding in Table 4.

[2] = molecular target: T2, human recombinant serotonin (5-Hydroxytryptamine) 5-HT2C receptor (Homo sapiens, UniProt P28335); experiment: Serotonin 5-HT2C radioligand binding ([3H]Mesulergine); details: for inhibition at 1 µM: compound at 1 μM, read-out: Serotonin (1 μM) 5-HT2C, percentage inhibition of ligand binding
T2 construct: expressed in transfected cells; host or cells: CHO-K1
T2 sequence (P28335 33-458): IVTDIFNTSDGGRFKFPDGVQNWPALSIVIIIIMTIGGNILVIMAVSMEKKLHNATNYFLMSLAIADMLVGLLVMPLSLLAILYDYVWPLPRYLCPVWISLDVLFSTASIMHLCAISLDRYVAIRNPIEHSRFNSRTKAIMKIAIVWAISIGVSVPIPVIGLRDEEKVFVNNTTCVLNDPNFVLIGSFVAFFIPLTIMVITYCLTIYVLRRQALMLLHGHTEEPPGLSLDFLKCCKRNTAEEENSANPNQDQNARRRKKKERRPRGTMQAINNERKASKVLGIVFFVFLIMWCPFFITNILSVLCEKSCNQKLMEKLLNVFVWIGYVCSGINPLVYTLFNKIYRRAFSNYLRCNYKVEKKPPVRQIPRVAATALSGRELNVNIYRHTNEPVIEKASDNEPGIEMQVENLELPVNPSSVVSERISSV
Protocol: To evaluate in radioligand binding assays the activity of compounds of the invention, human recombinant serotonin (5-Hydroxytryptamine) 5-HT2C receptor expressed in Chinese hamster ovary (CHO)-K1 cells (Wolf, W. et al, J. Neurochem. 69:1449, 1997) in a modified Tris-HCl buffer (50 mM Tris-HCl, pH 7.4, 0.1% Ascorbic Acid, 10 μM Pargyline) was used. Compounds of the invention were incubated with 1 nM [^3H]Mesulergine for 60 min. at 25° C. Non-specific binding was estimated in the presence of 1 μM Mianserin. Receptor proteins were filtered and washed, the filters were then counted to determine [^3H]Mesulergine specifically bound. Compounds were screened at 1 μM or lower, using 1% DMSO as vehicle. Biochemical assay results are presented as the percent inhibition of specific binding in Table 4.

[3] = molecular target: T3, human recombinant dopamine D2L receptor (Homo sapiens, UniProt P14416); experiment: Dopamine D2L radioligand binding ([3H]Spiperone); details: compound at 1 μM; read-out: Dopamine (1 μM) D2L, percentage inhibition of ligand binding
T3 construct: expressed in transfected cells; host or cells: CHO
T3 sequence (P14416 whole entry): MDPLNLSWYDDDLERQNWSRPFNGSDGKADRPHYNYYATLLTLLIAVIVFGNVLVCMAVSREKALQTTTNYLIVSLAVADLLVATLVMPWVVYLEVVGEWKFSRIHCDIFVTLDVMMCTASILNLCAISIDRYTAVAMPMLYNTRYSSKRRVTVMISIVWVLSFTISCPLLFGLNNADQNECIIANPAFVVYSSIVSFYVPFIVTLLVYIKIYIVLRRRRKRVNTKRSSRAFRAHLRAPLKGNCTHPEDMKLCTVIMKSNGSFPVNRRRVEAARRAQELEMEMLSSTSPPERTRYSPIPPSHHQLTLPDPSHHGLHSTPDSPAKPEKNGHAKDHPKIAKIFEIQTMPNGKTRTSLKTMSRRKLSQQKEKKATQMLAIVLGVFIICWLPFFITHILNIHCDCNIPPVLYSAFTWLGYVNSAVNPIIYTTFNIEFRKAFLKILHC
Protocol: To evaluate in radioligand binding assays the activity of compounds of the invention, human recombinant dopamine D2L receptor expressed in Chinese hamster ovary (CHO) cells (Grandy, D. et al, Proc. Natl. Acad. Sci. USA. 86:9762, 1989; Hayes, G. et al, Mol. Endocrinol. 6:920, 1992) in a modified Tris-HCl buffer (50 mM Tris-HCl, pH 7.4, 1.4 mM Ascorbic Acid, 0.001% BSA, 150 mM NaCl) was used. Compounds of the invention were incubated with 0.16 nM [^3H]Spiperone for 120 min. at 25° C. Non-specific binding was estimated in the presence of 10 μM Haloperidol. Receptor proteins were filtered and washed, the filters were then counted to determine [^3H]Spiperone specifically bound. Compounds were screened at 1 μM or lower, using 1% DMSO as vehicle. Biochemical assay results are presented as the percent inhibition of specific binding in Table 3.

[4] = molecular target: T4, human recombinant serotonin (5-Hydroxytryptamine) 5-HT2A receptor (Homo sapiens, UniProt P28223); experiment: Serotonin 5-HT2A radioligand binding ([3H]Ketanserin); details: for inhibition at 1 µM: compound at 1 μM, read-out: Serotonin (1 μM) 5-HT2A, percentage inhibition of ligand binding
T4 construct: expressed in transfected cells; host or cells: CHO-K1
T4 sequence (P28223 whole entry): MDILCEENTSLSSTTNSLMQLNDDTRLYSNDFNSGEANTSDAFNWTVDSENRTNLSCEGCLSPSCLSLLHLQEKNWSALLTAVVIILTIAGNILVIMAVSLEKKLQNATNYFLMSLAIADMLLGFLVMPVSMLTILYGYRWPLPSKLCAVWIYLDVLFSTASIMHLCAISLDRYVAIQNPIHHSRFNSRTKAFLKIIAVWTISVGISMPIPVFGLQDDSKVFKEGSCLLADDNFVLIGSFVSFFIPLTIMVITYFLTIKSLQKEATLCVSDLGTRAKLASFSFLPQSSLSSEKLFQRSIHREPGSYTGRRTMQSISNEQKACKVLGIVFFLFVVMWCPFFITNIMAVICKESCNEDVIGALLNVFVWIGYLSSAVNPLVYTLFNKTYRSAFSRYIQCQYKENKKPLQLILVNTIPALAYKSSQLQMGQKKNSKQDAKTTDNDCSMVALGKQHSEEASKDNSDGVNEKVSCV
Protocol: To evaluate in radioligand binding assays the activity of compounds of the invention, human recombinant serotonin (5-Hydroxytryptamine) 5-HT2A receptor expressed in Chinese hamster ovary (CHO)-K1 cells (Bonhaus, D. et al, Br. J. Pharmacol. 115:622, 1995; Saucier, C. et al, J. Neurochem. 68:1998, 1997) in a 50 mM Tris-HCl buffer, pH 7.4, was used. Compounds of the invention were incubated with 0.5 nM [^3H]Ketanserin for 60 min. at 25° C. Non-specific binding was estimated in the presence of 1 μM Mianserin. Receptor proteins were filtered and washed, the filters were then counted to determine [^3H]Ketanserin specifically bound. Compounds were screened at 1 μM or lower, using 1% DMSO as vehicle. Biochemical assay results are presented as the percent inhibition of specific binding in Table 4.

[5] = molecular target: T5, human recombinant serotonin (5-Hydroxytryptamine) 5-HT6 receptor (Homo sapiens, UniProt P50406); experiment: Serotonin 5-HT6 radioligand binding ([3H]LSD); details: for inhibition at 1 µM: compound at 1 μM, read-out: Serotonin (1 μM) 5-HT6, percentage inhibition of ligand binding
T5 construct: expressed in transfected cells; host or cells: HeLa
T5 sequence (P50406 whole entry): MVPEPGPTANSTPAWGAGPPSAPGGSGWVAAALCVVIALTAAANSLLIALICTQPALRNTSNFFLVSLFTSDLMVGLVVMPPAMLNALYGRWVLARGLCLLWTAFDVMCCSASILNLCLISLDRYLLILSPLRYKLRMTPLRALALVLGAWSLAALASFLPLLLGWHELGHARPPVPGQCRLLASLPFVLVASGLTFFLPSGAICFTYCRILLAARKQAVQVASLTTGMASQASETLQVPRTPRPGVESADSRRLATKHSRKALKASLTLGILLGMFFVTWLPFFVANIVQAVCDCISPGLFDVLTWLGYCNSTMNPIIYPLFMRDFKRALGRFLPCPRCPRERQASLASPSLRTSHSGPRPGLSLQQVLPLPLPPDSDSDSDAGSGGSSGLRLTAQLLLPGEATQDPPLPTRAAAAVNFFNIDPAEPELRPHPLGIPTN
Protocol: To evaluate in radioligand binding assays the activity of compounds of the invention, human recombinant serotonin (5-Hydroxytryptamine) 5-HT6 receptor expressed in human HeLa cells (Monsma, F. Jr. et al, Mol. Pharmacol. 43:320, 1993) in a modified Tris-HCl buffer (50 mM Tris-HCl, pH 7.4, 150 mM NaCl, 2 mM Ascorbic Acid, 0.001% BSA) was used. Compounds of the invention were incubated with 1.5 nM [3H]Lysergic acid diethylamide (LSD) for 120 min. at 37° C. Non-specific binding was estimated in the presence of 5 μM Serotonin (5-HT). Receptor proteins were filtered and washed, the filters were then counted to determine [3H]LSD specifically bound. Compounds were screened at 1 μM or lower, using 1% DMSO as vehicle. Biochemical assay results are presented as the percent inhibition of specific binding in Table 4.

[6] = molecular target: T6, human recombinant histamine H1 receptor (Homo sapiens, UniProt P35367); experiment: Histamine H1 radioligand binding ([3H]Pyrilamine); details: compound at 1 μM; 1.2 nM [3H]Pyrilamine; read-out: Histamine Binding (1 μM) H1, percentage inhibition
T6 construct: expressed in transfected cells; host or cells: CHO-K1
T6 sequence (P35367 whole entry): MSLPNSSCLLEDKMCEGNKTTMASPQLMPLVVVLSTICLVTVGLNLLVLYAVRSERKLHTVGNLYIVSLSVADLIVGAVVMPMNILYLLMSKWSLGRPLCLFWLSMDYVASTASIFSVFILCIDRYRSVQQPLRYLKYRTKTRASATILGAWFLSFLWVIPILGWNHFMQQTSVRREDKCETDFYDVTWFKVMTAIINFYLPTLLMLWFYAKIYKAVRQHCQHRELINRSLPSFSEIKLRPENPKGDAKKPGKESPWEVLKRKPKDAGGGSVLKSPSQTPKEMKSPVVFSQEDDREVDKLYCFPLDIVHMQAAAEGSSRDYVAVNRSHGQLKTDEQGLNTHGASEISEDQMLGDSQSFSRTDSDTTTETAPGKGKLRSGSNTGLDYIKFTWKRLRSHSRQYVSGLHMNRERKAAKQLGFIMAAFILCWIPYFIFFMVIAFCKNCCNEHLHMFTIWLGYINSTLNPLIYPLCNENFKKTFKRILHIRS
Protocol: To evaluate in radioligand binding assays the activity of compounds of the invention, human recombinant histamine H1 receptor expressed in Chinese hamster ovary (CHO) K1 cells (De Backer, M. et al, Biochem. Biophys. Res. Comm. 197(3):1601, 1993) in a modified Tris-HCl buffer (50 mM Tris-HCl, pH 7.4, 2 mM MgCl2, 100 mM NaCl, 250 mM Sucrose) was used. Compounds of the invention were incubated with 1.2 nM [^3H]Pyrilamine for 180 min. at 25° C. Non-specific binding was estimated in the presence of 1 μM Pyrilamine. Receptor proteins were filtered and washed, the filters were then counted to determine [^3H]Pyrilamine specifically bound. Compounds were screened at 1 μM or lower, using 1% DMSO as vehicle. Biochemical assay results are presented as the percent inhibition of specific binding in Table 2.

[7] = Stability of product in acidic medium (note in preparation); assay type: physicochemical
[8] = molecular target: T7, human recombinant histamine H2 receptor (Homo sapiens, UniProt P25021); experiment: Histamine H2 radioligand binding ([125I]Aminopotentidine); details: compound at 1 μM; 0.1 nM [125I]Aminopotentidine; read-out: Histamine Binding (1 μM) H2, percentage inhibition
T7 construct: expressed in transfected cells; host or cells: CHO-K1
T7 sequence (P25021 whole entry): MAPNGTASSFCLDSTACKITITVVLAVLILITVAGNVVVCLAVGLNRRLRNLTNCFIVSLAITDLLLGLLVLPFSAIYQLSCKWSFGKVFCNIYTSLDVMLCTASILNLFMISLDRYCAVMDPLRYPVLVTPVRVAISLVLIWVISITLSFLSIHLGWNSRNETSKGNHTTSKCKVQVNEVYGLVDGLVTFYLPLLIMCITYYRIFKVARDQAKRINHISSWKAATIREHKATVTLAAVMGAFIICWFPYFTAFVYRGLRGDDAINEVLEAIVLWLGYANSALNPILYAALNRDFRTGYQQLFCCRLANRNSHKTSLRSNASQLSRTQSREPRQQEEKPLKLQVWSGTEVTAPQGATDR
Protocol: To evaluate in radioligand binding assays the activity of compounds of the invention, human recombinant histamine H2 receptor expressed in Chinese hamster ovary (CHO) K1 cells (Ruat, M., Proc. Natl. Acad. Sci. USA. 87(5):1658, 1990) in a 50 mM Phosphate buffer, pH 7.4 was used. Compounds of the invention were incubated with 0.1 nM [^125I]Aminopotentidine for 120 min. at 25° C. Non-specific binding was estimated in the presence of 3 μM Tiotidine. Receptor proteins were filtered and washed, the filters were then counted to determine [^125I]Aminopotentidine specifically bound. Compounds were screened at 1 μM or lower, using 1% DMSO as vehicle. Biochemical assay results are presented as the percent inhibition of specific binding in Table 2.

Structure (SMILES)	inhibition at 0.1 µM ([1]; compound at 0.1 μM, read-out: Serotonin (0.1 μM) 5-HT7, percentage inhibition of ligand binding)	inhibition at 0.1 µM ([2]; compound at 0.1 μM, read-out: Serotonin (0.1 μM) 5-HT2C, percentage inhibition of ligand binding)	inhibition at 1 µM [3]	inhibition at 0.1 µM ([4]; compound at 0.1 μM, read-out: Serotonin (0.1 μM) 5-HT2A, percentage inhibition of ligand binding)	inhibition at 0.1 µM ([5]; compound at 0.1 μM, read-out: Serotonin (0.1 μM) 5-HT6, percentage inhibition of ligand binding)	inhibition at 1 µM [6]	stability in acidic medium [7]	inhibition at 1 µM [1]	inhibition at 1 µM [8]	inhibition at 1 µM [2]	inhibition at 1 µM [4]	inhibition at 1 µM [5]
Cc1cc2c3c(c1)c1c(n3CC(c3ccc(F)cc3)=C2)CCN(C)C1 [Compound 158]	36%	55%	99%	81%	82%	27%	unstable in acidic medium					
Cc1cc2c3c(c1)c1c(n3CCO2)CCN(C)C1 [Compound 4, 5,8-dimethyl-1,2,7,8,9,10-hexahydro-[1,4]oxazino[2,3,4-hi]pyrido[4,3-b]indole]			6%			53%		46%	10%	79%	56%	25%
Cc1cc2c3c(c1)c1c(n3CC2c2ccc(F)cc2)CCN(C)C1 (stereo not drawn) [Compound 2]			17%			66%		89%	48%	92%	87%	57%
Cc1cc2c3c(c1)c1c(n3CC(c3ccc(C)nc3)C2)CCN(C)C1 (stereo not drawn) [Compound 1]			-1%			44%			42%	19%	20%	24%
